Reference: US9211310B2, “Use of a Chinese medicine composition in preparing medicaments for treating secondary prevention of myocardial infarction” (TASLY PHARMACEUTICAL GROUP CO., LTD, priority 2010, dated 2015)

System: patients after acute myocardial infarction
Experiment: TCM symptom score, total and single (chest pain, chest tightness, short breath, fatigue, palpitation, spontaneous perspiration, pale complexion), same clinical trial
Assay type: in vivo, human
Parameters: total score of TCM symptom, Mean / total score of TCM symptom, Min / total score of TCM symptom, Max / total score of TCM symptom, Md / change of total score of TCM symptom, Mean / change of total score of TCM symptom, Max / change of total score of TCM symptom, Md: scale not given here
Conditions: FAS
Source text: 3508 patients who were in accordance with the diagnostic standards of AMI for 28 days to 2 years and differentiated as Qi deficiency and blood stagnation syndrome by TCM were studied. 0.5 g Chinese medicine composition prepared by the method of EXAMPLE 1 (Coded as QSYQ) was administrated half an hour after meal, 3 times per day.
They included the overall survival time, angina pectoris score, TCM symptom score and life quality score, where angina pectoris score, TCM symptom score and life quality score were evaluated at randomization, in 1st, 3rd, 6th, 9th, 12th month after treatment and 18th month after follow-up.
The analysis method referred to the angina pectoris score.

[1] = 12 months after treatment-baseline

`CC(=O)Oc1ccccc1C(=O)O` [Control group, aspirine] was tested, and the “change of palpitation 3, number of patients” value [1] was 8, the “change of palpitation 3, percent of patients” value [1] was “(0.47%)” and the “change of palpitation −1, percent of patients” value [1] was “(6.55%)”. The “change of palpitation −2, number of patients” value [1] was 4, the “change of palpitation −2, percent of patients” value [1] was “(0.23%)” and the “change of palpitation −3, number of patients” value [1] was 0. For the same compound, the “change of palpitation −3, percent of patients” value [1] was “(0.00%)”, the “change of spontaneous perspiration 0, number of patients” value [1] was 837 and the “change of spontaneous perspiration 0, percent of patients” value [1] was “(48.98%)”. The “change of spontaneous perspiration 1, number of patients” value [1] was 550, the “change of spontaneous perspiration 1, percent of patients” value [1] was “(32.18%)” and the “change of spontaneous perspiration 2, number of patients” value [1] was 139. For the same compound, the “change of spontaneous perspiration 2, percent of patients” value [1] was “(8.13%)”, the “change of spontaneous perspiration 3, number of patients” value [1] was 34 and the “change of spontaneous perspiration 3, percent of patients” value [1] was “(1.99%)”. The “change of spontaneous perspiration −1, number of patients” value [1] was 137, the “change of spontaneous perspiration −1, percent of patients” value [1] was “(8.02%)” and the “change of spontaneous perspiration −2, number of patients” value [1] was 12. For the same compound, the “change of spontaneous perspiration −2, percent of patients” value [1] was “(0.70%)”, the “change of spontaneous perspiration −3, number of patients” value [1] was 0 and the “change of spontaneous perspiration −3, percent of patients” value [1] was “(0.00%)”. The “change of total score of TCM symptom, Max” value [1] was 18.00, the “change of total score of TCM symptom, Md” value [1] was −5.00 and the “change of total score of TCM symptom, Mean” value [1] was −5.39. For the same compound, the “change of total score of TCM symptom, Min” value [1] was −33.00, the “distribution of total score of TCM symptom: Medium, number of patients” value (Baseline) was 817 and the “distribution of total score of TCM symptom: Medium, percentage of patients” value (Baseline) was “(47.83%)”. For the same compound, the “distribution of total score of TCM symptom: Mild, number of patients” value (Baseline) was 828, the “distribution of total score of TCM symptom: Mild, percentage of patients” value (Baseline) was “(48.48%)” and the “distribution of total score of TCM symptom: Severe, number of patients” value (Baseline) was 63. The “distribution of total score of TCM symptom: Severe, percentage of patients” value (Baseline) was “(3.69%)”, the “fatigue score 0, % of patients” value (Baseline) was “(18.42%)” and the “fatigue score 0, number of patients” value (Baseline) was 315. The “fatigue score 2, % of patients” value (Baseline) was “(60.94%)”, the “fatigue score 2, number of patients” value (Baseline) was 1042 and the “fatigue score 4, % of patients” value (Baseline) was “(16.90%)”. For the same compound, the “fatigue score 4, number of patients” value (Baseline) was 289, the “fatigue score 6, % of patients” value (Baseline) was “(3.74%)” and the “fatigue score 6, number of patients” value (Baseline) was 64. The “pale complexion score 0, number of patients” value (Baseline) was 572, the “pale complexion score 0, percent of patients” value (Baseline) was “(33.47%)” and the “pale complexion score 1, number of patients” value (Baseline) was 741. For the same compound, the “pale complexion score 1, percent of patients” value (Baseline) was “(43.36%)”, the “pale complexion score 2, number of patients” value (Baseline) was 325 and the “pale complexion score 2, percent of patients” value (Baseline) was “(19.02%)”. For the same compound, the “pale complexion score 3, number of patients” value (Baseline) was 71, the “pale complexion score 3, percent of patients” value (Baseline) was “(4.15%)” and the “short breath score 0, % of patients” value (Baseline) was “(15.04%)”. The “short breath score 0, number of patients” value (Baseline) was 257, the “short breath score 3, % of patients” value (Baseline) was “(51.84%)” and the “short breath score 3, number of patients” value (Baseline) was 886. For the same compound, the “short breath score 6, % of patients” value (Baseline) was “(31.19%)”, the “short breath score 6, number of patients” value (Baseline) was 533 and the “short breath score 9, % of patients” value (Baseline) was “(1.93%)”. The “short breath score 9, number of patients” value (Baseline) was 33, the “distribution of total score of TCM symptom: Medium, number of patients” value (Follow-up) was 218 and the “distribution of total score of TCM symptom: Medium, percentage of patients” value (Follow-up) was “(15.29%)”. For the same compound, the “distribution of total score of TCM symptom: Mild, number of patients” value (Follow-up) was 1205, the “distribution of total score of TCM symptom: Mild, percentage of patients” value (Follow-up) was “(84.50%)” and the “distribution of total score of TCM symptom: Severe, number of patients” value (Follow-up) was 3. The “distribution of total score of TCM symptom: Severe, percentage of patients” value (Follow-up) was “(0.21%)”, the “fatigue score 0, % of patients” value (Follow-up) was “(42.76%)” and the “fatigue score 0, number of patients” value (Follow-up) was 611. For the same compound, the “fatigue score 2, % of patients” value (Follow-up) was “(53.11%)”, the “fatigue score 2, number of patients” value (Follow-up) was 759 and the “fatigue score 4, % of patients” value (Follow-up) was “(3.92%)”. For the same compound, the “fatigue score 4, number of patients” value (Follow-up) was 56, the “fatigue score 6, % of patients” value (Follow-up) was “(0.21%)” and the “fatigue score 6, number of patients” value (Follow-up) was 3. The “pale complexion score 0, number of patients” value (Follow-up) was 882, the “pale complexion score 0, percent of patients” value (Follow-up) was “(61.72%)” and the “pale complexion score 1, number of patients” value (Follow-up) was 465. The “pale complexion score 1, percent of patients” value (Follow-up) was “(32.54%)”, the “pale complexion score 2, number of patients” value (Follow-up) was 76 and the “pale complexion score 2, percent of patients” value (Follow-up) was “(5.32%)”. The “pale complexion score 3, number of patients” value (Follow-up) was 6, the “pale complexion score 3, percent of patients” value (Follow-up) was “(0.42%)” and the “palpitation score 0, number of patients” value (Follow-up) was 631. The “palpitation score 0, percent of patients” value (Follow-up) was “(44.16%)”, the “palpitation score 2, number of patients” value (Follow-up) was 697 and the “palpitation score 2, percent of patients” value (Follow-up) was “(48.78%)”. The “palpitation score 4, number of patients” value (Follow-up) was 95, the “palpitation score 4, percent of patients” value (Follow-up) was “(6.65%)” and the “palpitation score 6, number of patients” value (Follow-up) was 6. For the same compound, the “palpitation score 6, percent of patients” value (Follow-up) was “(0.42%)”, the “short breath score 0, % of patients” value (Follow-up) was “(35.62%)” and the “short breath score 0, number of patients” value (Follow-up) was 509. For the same compound, the “short breath score 2, % of patients” value (Follow-up) was “(0.07%)”, the “short breath score 2, number of patients” value (Follow-up) was 1 and the “short breath score 3, % of patients” value (Follow-up) was “(54.51%)”. For the same compound, the “short breath score 3, number of patients” value (Follow-up) was 779, the “short breath score 6, % of patients” value (Follow-up) was “(9.59%)” and the “short breath score 6, number of patients” value (Follow-up) was 137. The “short breath score 9, % of patients” value (Follow-up) was “(0.21%)”, the “short breath score 9, number of patients” value (Follow-up) was 3 and the “spontaneous perspiration score 0, number of patients” value (Follow-up) was 767. For the same compound, the “spontaneous perspiration score 0, percent of patients” value (Follow-up) was “(53.71%)”, the “spontaneous perspiration score 1, number of patients” value (Follow-up) was 595 and the “spontaneous perspiration score 1, percent of patients” value (Follow-up) was “(41.67%)”. For the same compound, the “spontaneous perspiration score 2, number of patients” value (Follow-up) was 62, the “spontaneous perspiration score 2, percent of patients” value (Follow-up) was “(4.34%)” and the “spontaneous perspiration score 3, number of patients” value (Follow-up) was 4. For the same compound, the “spontaneous perspiration score 3, percent of patients” value (Follow-up) was “(0.28%)”, the “total score of TCM symptom, Max” value (Follow-up) was 32.00 and the “total score of TCM symptom, Md” value (Follow-up) was 7.00. The “total score of TCM symptom, Mean” value (Follow-up) was 7.71, the “total score of TCM symptom, Min” value (Follow-up) was 0.00 and the “change of fatigue 0, % of patients” value (Follow-up-baseline) was “(42.67%)”. For the same compound, the “change of fatigue 0, number of patients” value (Follow-up-baseline) was 608, the “change of fatigue 2, % of patients” value (Follow-up-baseline) was “(37.68%)” and the “change of fatigue 2, number of patients” value (Follow-up-baseline) was 537. The “change of fatigue 4, % of patients” value (Follow-up-baseline) was “(11.09%)”, the “change of fatigue 4, number of patients” value (Follow-up-baseline) was 158 and the “change of fatigue 6, % of patients” value (Follow-up-baseline) was “(2.11%)”. For the same compound, the “change of fatigue 6, number of patients” value (Follow-up-baseline) was 30, the “change of fatigue −2, % of patients” value (Follow-up-baseline) was “(6.11%)” and the “change of fatigue −2, number of patients” value (Follow-up-baseline) was 87. For the same compound, the “change of fatigue −4, % of patients” value (Follow-up-baseline) was “(0.35%)”, the “change of fatigue −4, number of patients” value (Follow-up-baseline) was 5 and the “change of pale complexion 0, number of patients” value (Follow-up-baseline) was 950. For the same compound, the “change of pale complexion 0, percent of patients” value (Follow-up-baseline) was “(66.95%)”, the “change of pale complexion 1, number of patients” value (Follow-up-baseline) was 430 and the “change of pale complexion 1, percent of patients” value (Follow-up-baseline) was “(30.30%)”.
